Source: PubChem BioAssay (NCI)
“And” between values parts separate entries of the source, which are not always exact repeats. Equal values may be shown once.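 In this assay, cells in 96-well plates receive the compound at five concentrations for 48 hours. Endpoints are linearly interpolated between the surrounding concentrations. GI50 = concentration required for 50% inhibition of growth. TGI: concentration producing complete growth inhibition.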 Where a SMILES comes first, the peptide text is derived from it. Bridges are numbered along the chain shown (N, C = ends). [ ]: non-standard residue; d: D form. The star is where a group is joined. ξ: configuration not given here. ξDab(CH2SO3H) = NC(CCNCS(=O)(=O)O)C(=O)O; Heptanoyl(6-Me) = CC(C)CCCCC(=O)*; Dab = NCC[CH](N)C(=O)O

Key:
Assay in all cases: NCI anticancer screen, dose series, 48 h
[1] = tested on: MOLT-4 leukemia
[2] = tested on: M14 melanoma
[3] = tested on: OVCAR-3 ovarian
[4] = tested on: PC-3 prostate
[5] = tested on: MCF7 breast
[6] = tested on: SN12C renal
[7] = tested on: SW-620 colon
[8] = tested on: HOP-92 NSCLC
[9] = tested on: DU-145 prostate
[10] = tested on: HL-60(TB) leukemia

Structure (SMILES) | GI50 [1] | TGI [1] | GI50 [2] | TGI [2] | GI50 [3] | TGI [3] | GI50 [4] | TGI [4] | GI50 [5] | TGI [5] | GI50 [6] | TGI [6] | GI50 [7] | TGI [7] | GI50 [8] | TGI [8] | GI50 [9] | TGI [9] | GI50 [10] | TGI [10]
CCCCCCCCCCCC(=O)N1CCN(C(C)=O)CC1 | 20.8 µM | 47.8 µM | 17.6 µM | 33 µM | 27.6 µM | 95 µM | 17.8 µM | 34.5 µM | 17.6 µM | 32.8 µM | 18.8 µM | 37.3 µM | 25.2 µM | 46.6 µM | 11.5 µM | 27.4 µM | 35 µM | > 100 µM |  | 
CC[C@@]1(O)C(=O)OCc2c1cc1n(c2=O)Cc2cc3cccc([N+](=O)[O-])c3nc2-1 |  |  | 1.05 µM | 12.5 µM | 4.92 µM | 43.5 µM |  |  |  |  | 0.382 µM | 5.01 µM |  |  | 8.45 µM | 50.8 µM |  |  | 0.365 µM | > 100 µM
Cc1cc(C)n(-c2ccnc3cc(Cl)ccc23)n1 |  | > 100 µM |  | > 100 µM |  | > 100 µM |  |  |  |  |  | > 100 µM |  | > 100 µM |  | > 100 µM |  |  |  | > 100 µM
COc1ccc2c(c1)CC[C@@H]1[C@@H]2CC[C@]2(C)c3c(cc(C(=O)O)c4sccc34)C[C@@H]12 | 10.1 µM | 25.4 µM | 18.2 µM | 37.1 µM | 24.7 µM | 72.1 µM | 10.5 µM | 25.1 µM | 17.2 µM | 59 µM | 17.8 µM | 41.3 µM | 16.1 µM | 36.7 µM |  |  | 19.2 µM | 36.2 µM | 8.61 µM | 25.3 µM
O=C(NC(=O)c1ccccc1[N+](=O)[O-])Nc1ccc(Oc2ncc(Cl)cn2)c([N+](=O)[O-])c1 |  | > 100 µM |  | > 100 µM |  | > 7.67 µM |  | > 100 µM |  | > 100 µM |  | > 100 µM |  | > 100 µM |  |  |  | > 100 µM |  | 1.17 µM
COc1cc(O)c2c(c1)O[C@@H]1OCC[C@H]21 |  | > 100 µM |  | > 100 µM |  | > 100 µM |  |  |  |  |  | > 100 µM |  | > 100 µM |  | > 100 µM |  |  |  | > 100 µM
CCC(C)C1NC(=O)C(CCNCS(=O)(=O)O)NC(=O)C(NC(=O)C(CCNCS(=O)(=O)O)NC(=O)C(NC(=O)C(CCNCS(=O)(=O)O)NC(=O)CCCCC(C)C)C(C)O)CCNC(=O)C(C(C)O)NC(=O)C(CCNCS(=O)(=O)O)NC(=O)C(CCNCS(=O)(=O)O)NC(=O)C(C(C)CC)NC1=O (centres undefined) ({Heptanoyl(6-Me)}-[ξDab(CH2SO3H)]T[ξDab(CH2SO3H)][Dab][ξDab(CH2SO3H)]II[ξDab(CH2SO3H)][ξDab(CH2SO3H)]T; lactam 4-C; configuration not given here) | 8.47 µM | > 25 µM | 5.72 µM | 20.6 µM | 2.88 µM | 8.06 µM | 7.97 µM | > 25 µM | 4.71 µM | > 25 µM | 11.2 µM | > 25 µM | 4 µM | > 25 µM |  |  | 7.09 µM | 23.2 µM | 5.23 µM | 16.9 µM
COc1ccc2c(c1)oc(=O)c1cc(OC)ccc12 | > 100 µM | > 100 µM | > 100 µM | > 100 µM | > 100 µM | > 100 µM | > 100 µM | > 100 µM | > 100 µM | > 100 µM | > 100 µM | > 100 µM | > 100 µM | > 100 µM | > 100 µM | > 100 µM | > 100 µM | > 100 µM |  | 
COc1ccc(NC(=O)CC/C(CC(=O)c2ccco2)=N/NC(N)=S)cc1 |  | > 100 µM |  | > 100 µM |  | > 100 µM |  |  |  |  |  | > 100 µM |  | > 100 µM |  | > 100 µM |  |  |  | > 100 µM
COC(=O)c1ccccc1N1C(=O)Cc2ccccc2C1=O |  | > 100 µM |  |  |  | > 100 µM |  |  |  |  |  | > 100 µM |  | > 100 µM |  |  |  |  |  | 
CONC(C)=O |  | > 100 µM |  | > 100 µM |  | > 100 µM |  | > 100 µM |  | > 100 µM |  | > 100 µM |  | > 100 µM |  |  |  | > 100 µM |  | > 100 µM
O=c1[nH]c(=O)c2cc3cc(C4CC(O)C(CO)O4)ccc3cc2[nH]1 (centres undefined) | > 100 µM | > 100 µM | > 100 µM | > 100 µM | > 100 µM | > 100 µM | > 100 µM | > 100 µM | > 100 µM | > 100 µM | > 100 µM | > 100 µM | > 100 µM | > 100 µM | > 100 µM | > 100 µM | > 100 µM | > 100 µM |  | 
CC1(Br)CC2OC3(Br)C=CC(C)(O)C2(CC1=O)C3(C)C (centres undefined) |  | > 100 µM |  | > 100 µM |  | > 100 µM |  |  |  |  |  | > 100 µM |  | > 100 µM |  | > 100 µM |  |  |  | 
N#Cc1c(N)n2c(nc1=Nc1ccc(Cl)cc1)sc1cc(Cl)ccc12 | 4.42 µM |  | 6.59 µM and 5.9 µM | > 100 µM | 6.11 µM | > 100 µM | 4.65 µM |  | 1.83 µM | > 100 µM | 33.5 µM | > 100 µM | 3.42 µM | > 100 µM |  |  | > 100 µM | > 100 µM |  | > 100 µM
COc1ccc(Sc2nc3cc(N)cc(N)c3nc2-c2ccccc2)cc1 | 4.19 µM | > 100 µM | > 100 µM | > 100 µM |  |  | 6.39 µM | > 100 µM | 16.5 µM | > 100 µM | > 100 µM | > 100 µM | 26.5 µM | > 100 µM |  |  | 14.5 µM | > 100 µM | 4.25 µM | > 100 µM
CCCNCC(=O)O[C@]1(CC)C(=O)OCc2c1cc1n(c2=O)Cc2cc3ccccc3nc2-1 |  | 0.0699 µM |  | 1.82 µM |  | 2.63 µM |  |  |  |  |  | 0.215 µM |  |  |  | 3.6 µM |  |  |  | 0.553 µM
C=C1C(=O)O[C@H]2[C@H]1CC/C(C=Nc1c(N)cc(C(F)(F)F)cc1C(F)(F)F)=C\CC[C@@]1(C)O[C@@H]21 | 0.517 µM | > 100 µM | 1.73 µM | 3.67 µM | 1.41 µM | 2.86 µM | 1.54 µM | 4.4 µM | 0.498 µM | 2.34 µM |  |  | 1.23 µM | 2.95 µM | 1.22 µM | 3.09 µM | 1.63 µM | 3.09 µM | 0.801 µM | 27.2 µM
